System: urinary TGF-β1
Experiment: Urinary TGF-β1 excretion in proteinuric patients, add-on losartan crossover trial on background lisinopril
Assay type: in vivo, human
Conditions: add-on losartan 50 mg/d for 4 weeks on lisinopril 40 mg/d
Experimental: Patients previously administered angiotensin-receptor blockers (ARBs) or with estimated creatinine clearances of less than 30 mumin were excluded. A separate group of 12 healthy volunteers with normal BP, normal albuminuria, and no history of kidney disease or diabetes served as the control group for urinary TGF-β1 levels.
The study was a two-period, crossover, randomized, controlled trial. Seventeen (17) patients were administered a sequence of either losartan, 50 mg/d, for 4 weeks, 2-week washout, and placebo for 4 weeks or placebo for 4 weeks, 2-week washout, and losartan, 50 mg/d, for 4 weeks. […] Twenty-four-hour urine was collected for protein, sodium, urea, creatinine, and urinary TGF-β1 measurement. Because standard therapy for patients with proteinuria and renal failure includes ACE inhibitors, ACE inhibitor therapy was not discontinued in any patient enrolled in the study.
Appropriate corrections for concentrations were made and values were expressed as TGF-β1 in picograms per milligram of creatinine. […] TGF-β expressed as TGF-β in picograms per milligram of creatinine was calculated as follows:
The normality assumption was tested with the Kolmogrov Smirnov statistic, and homogeneity of variances was tested using Lavene's test. […] Data were analyzed by two-way mixed-model analysis of variance with subjects as the random variable and drug or placebo assignment as the fixed variable. […]

In the case of CCCCc1nc(Cl)c(CO)n1Cc1ccc(-c2ccccc2-c2nn[nH]n2)cc1 [losartan], the “reduction in urinary TGF-β1 levels” value (95% CI 16 to 55, P=0.017) is reported as 38% and the “urinary TGF-β1 level after losartan” value (geometric mean, pre-losartan level 13.3 (95% CI 11.4 to 15.5)) is reported as 8.2 pg/mg creatinine.
